Where two headings read alike, the source gives them in different places.
Tests used:
Format in all cases: biochemical
JAK1 = JAK1 (Homo sapiens (Human), UniProt P23458); test: JAK Caliper Enzyme Assay at 1 mM ATP, JAK1
Method in brief: (§1)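 Recombinant human kinase domains phosphorylated a fluorescent synthetic peptide at room temperature, with enzyme level and time tuned to 20% to 30% conversion; EDTA stop buffer ended reactions. Mobility-shift separation gave percent product from peak heights, normalised to DMSO and positive controls, and IC50s came from concentration–effect curves.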

JAK3 = JAK3 (Homo sapiens (Human), UniProt P52333); test: JAK Caliper Enzyme Assay at 1 mM ATP, JAK3
Method in brief: as §1

TYK2 = TYK2 (Homo sapiens (Human), UniProt P29597); test: JAK Caliper Enzyme Assay at 1 mM ATP, TYK2
Method in brief: (§2)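 Read-out is Caliper LabChip mobility-shift separation of phosphorylated from unphosphorylated fluorescent peptide after EDTA termination. Each JAK kinase domain (human, recombinant) runs at 1 mM ATP at room temperature, adjusted for 20–30% turnover. Inhibition is normalized to DMSO and positive-control wells and plotted against concentration.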

JAK2 = JAK2 (Homo sapiens (Human), UniProt O60674); test: JAK Caliper Enzyme Assay at 1 mM ATP, JAK2
Method in brief: as §2

JAK1, sequence (P23458 875-1153): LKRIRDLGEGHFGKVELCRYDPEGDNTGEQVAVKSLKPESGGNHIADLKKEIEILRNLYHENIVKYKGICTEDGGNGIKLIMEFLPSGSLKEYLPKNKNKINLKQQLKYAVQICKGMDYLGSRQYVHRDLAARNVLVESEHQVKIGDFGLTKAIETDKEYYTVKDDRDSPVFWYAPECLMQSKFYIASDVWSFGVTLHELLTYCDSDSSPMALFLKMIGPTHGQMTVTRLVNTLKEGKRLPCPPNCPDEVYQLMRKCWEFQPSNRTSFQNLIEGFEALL
TYK2, sequence (P29597 897-1176): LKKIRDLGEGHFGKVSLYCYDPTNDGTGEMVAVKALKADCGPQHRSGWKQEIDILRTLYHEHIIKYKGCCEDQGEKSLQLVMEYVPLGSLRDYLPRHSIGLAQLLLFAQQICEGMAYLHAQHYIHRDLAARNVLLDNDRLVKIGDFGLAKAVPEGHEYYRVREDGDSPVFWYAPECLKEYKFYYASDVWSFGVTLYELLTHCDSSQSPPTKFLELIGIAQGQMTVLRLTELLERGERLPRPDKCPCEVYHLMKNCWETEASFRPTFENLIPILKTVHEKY
JAK2, sequence (O60674 849-1124): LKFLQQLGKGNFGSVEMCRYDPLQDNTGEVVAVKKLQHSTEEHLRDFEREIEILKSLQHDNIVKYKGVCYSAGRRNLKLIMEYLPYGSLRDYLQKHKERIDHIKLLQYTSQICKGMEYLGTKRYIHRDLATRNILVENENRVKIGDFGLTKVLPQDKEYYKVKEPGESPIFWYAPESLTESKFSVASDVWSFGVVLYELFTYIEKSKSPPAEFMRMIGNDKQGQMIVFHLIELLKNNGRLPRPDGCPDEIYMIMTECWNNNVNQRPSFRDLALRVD
JAK3, sequence (P52333 822-1111): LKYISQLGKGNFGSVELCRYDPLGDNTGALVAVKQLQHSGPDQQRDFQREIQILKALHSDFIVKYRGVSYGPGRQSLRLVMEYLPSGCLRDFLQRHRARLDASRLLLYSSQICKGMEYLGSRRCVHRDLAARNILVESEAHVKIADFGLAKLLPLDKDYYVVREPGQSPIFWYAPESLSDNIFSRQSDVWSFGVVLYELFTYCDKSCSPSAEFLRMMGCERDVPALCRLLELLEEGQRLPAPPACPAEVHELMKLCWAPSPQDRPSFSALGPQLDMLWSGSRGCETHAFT

| Structure (SMILES) | IC50 (JAK1; JAK Caliper enzyme assay) [nM] | IC50 (JAK3; JAK Caliper enzyme assay) [µM] | IC50 (TYK2; JAK Caliper enzyme assay) [nM] | IC50 (JAK2; JAK Caliper enzyme assay) [nM] | IC50 (JAK1) [nM] | IC50 (JAK3) [µM] | IC50 (TYK2) [nM] | IC50 (JAK2) [nM] |
| --- | --- | --- | --- | --- | --- | --- | --- | --- |
| CS(=O)(=O)N1CC(CC#N)(n2cnc(-c3cc(-c4cn[nH]c4)cc4ncccc34)n2)C1 [Example 453, [1-(methylsulfonyl)-3-{3-[7-(1H-pyrazol-4-yl)quinolin-5-yl]-1H-1,2,4-triazol-1-yl}azetidin-3-yl]acetonitrile] | 8300 | > 10 | 259 | 3180 | – | – | – | – |
| C[C@]1(C#N)C[C@@](CC#N)(n2ncc(-c3cc(-c4cn[nH]c4N)cc4ncccc34)n2)C1 [Example 322, cis-3-{4-[7-(5-amino-1H-pyrazol-4-yl)quinolin-5-yl]-2H-1,2,3-triazol-2-yl}-3-(cyanomethyl)-1-methylcyclobutanecarbonitrile] | – | – | – | – | 2590 | > 10 | 74 | 959 |
| Cc1cncc(-c2cc(-c3cnn([C@]4(CC#N)C[C@@H](C#N)C4)n3)c3cccnc3c2)n1 [Example 403, trans-3-(cyanomethyl)-3-{4-[7-(6-methylpyrazin-2-yl)quinolin-5-yl]-2H-1,2,3-triazol-2-yl}cyclobutanecarbonitrile] | > 10000 | > 10 | 7190 | > 10000 | – | – | – | – |
| N#CCC1(n2ccc(-c3nc(Cl)cc4ncccc34)n2)CN(CC(F)(F)F)C1 [Example 14, {3-[3-(7-chloro-1,6-naphthyridin-5-yl)-1H-pyrazol-1-yl]-1-(2,2,2-trifluoroethyl)azetidin-3-yl}acetonitrile] | – | – | – | – | 8960 | > 10 | 1470 | > 10000 |
| N#CC[C@]1(n2ncc(-c3cc(-c4cn5ccnc5c(N)n4)cc4ncccc34)n2)C[C@@H](C#N)C1 [Example 423, cis-3-{4-[7-(8-aminoimidazo[1,2-a]pyrazin-6-yl)quinolin-5-yl]-2H-1,2,3-triazol-2-yl}-3-(cyanomethyl)cyclobutanecarbonitrile] | 2250 | > 10 | 76 | 183 | – | – | – | – |
| COc1ccc(-c2cc3ncccc3c(-c3ccn(C4(CC#N)CN(CC(F)(F)F)C4)n3)n2)cn1 [Example 188, [3-{3-[7-(6-methoxypyridin-3-yl)-1,6-naphthyridin-5-yl]-1H-pyrazol-1-yl}-1-(2,2,2-trifluoroethyl)azetidin-3-yl]acetonitrile] | – | – | – | – | 2720 | > 10 | 80 | 902 |
| CS(=O)(=O)N1CC(CC#N)(n2ccc(-c3nc(-c4cnn(CCO)c4)cc4ncccc34)n2)C1 [Example 125, [3-(3-{7-[1-(2-hydroxyethyl)-1H-pyrazol-4-yl]-1,6-naphthyridin-5-yl}-1H-pyrazol-1-yl)-1-(methylsulfonyl)azetidin-3-yl]acetonitrile] | – | – | – | – | 965 | > 10 | 33 | 162 |
| CS(=O)(=O)N1CC(CC#N)(n2cc(-c3cc(-c4ccc(=O)[nH]c4)cc4ncccc34)nn2)C1 [Example 295, [1-(methylsulfonyl)-3-{4-[7-(6-oxo-1,6-dihydropyridin-3-yl)quinolin-5-yl]-1H-1,2,3-triazol-1-yl}azetidin-3-yl]acetonitrile] | – | – | – | – | 7720 | > 10 | 155 | 2580 |
| Cn1cc(-c2cc3ncccc3c(-c3cc(C4(CC#N)CN(CC#N)C4)no3)n2)cn1 [Example 282] | – | – | – | – | 219 | > 10 | 60 | 45 |
| CS(=O)(=O)N1CC(CC#N)(n2ncc(-c3cc(-c4cc(O)cc(F)c4)cc4ncccc34)n2)C1 [Example 443] | > 10000 | > 10 | 631 | 6460 | – | – | – | – |
| CS(=O)(=O)Nc1ccc(-c2cc(-c3cnn(C4(CC#N)CC(C#N)C4)n3)c3cccnc3c2)nc1 (stereo not drawn) [Example 374, N-[6-(5-{2-[cis-3-cyano-1-(cyanomethyl)cyclobutyl]-2H-1,2,3-triazol-4-yl}quinolin-7-yl)pyridin-3-yl]methanesulfonamide] | 53 | 2.89 | 9 | 25 | – | – | – | – |
| Cn1cc(-c2cc3ncccc3c(-c3ccn(C4(CC#N)CN(S(C)(=O)=O)C4)n3)n2)cn1 [Example 104, [3-{3-[7-(1-methyl-1H-pyrazol-4-yl)-1,6-naphthyridin-5-yl]-1H-pyrazol-1-yl}-1-(methylsulfonyl)azetidin-3-yl]acetonitrile] | – | – | – | – | 1380 | > 10 | 19 | 164 |

More lines, now with the values ahead:

| IC50 (JAK1; JAK Caliper enzyme assay) [nM] | IC50 (JAK3; JAK Caliper enzyme assay) [µM] | IC50 (TYK2; JAK Caliper enzyme assay) [nM] | IC50 (JAK2; JAK Caliper enzyme assay) [nM] | IC50 (JAK1) [nM] | IC50 (JAK3) [µM] | IC50 (TYK2) [nM] | IC50 (JAK2) [nM] | Structure (SMILES) |
| --- | --- | --- | --- | --- | --- | --- | --- | --- |
| – | – | – | – | > 10000 | > 10 | 1920 | 8970 | CS(=O)(=O)N1CC(CC#N)(n2ccc(-c3nc(-c4cnc(N)nc4)cc4ncccc34)n2)C1 [Example 238, [3-{3-[7-(2-aminopyrimidin-5-yl)-1,6-naphthyridin-5-yl]-1H-pyrazol-1-yl}-1-(methylsulfonyl)azetidin-3-yl]acetonitrile] |
| 1530 | > 10 | 127 | 1220 | – | – | – | – | N#CC[C@]1(n2cc(-c3cc(-c4ccc(O)cc4)cc4nccn34)cn2)C[C@@H](C#N)C1 [Example 468, cis-3-(cyanomethyl)-3-{4-[7-(4-hydroxyphenyl)imidazo[1,2-a]pyridin-5-yl]-1H-pyrazol-1-yl}cyclobutanecarbonitrile] |
| 593 | 9.48 | 36 | 155 | – | – | – | – | CC(=O)Nc1cccc(-c2cc(-c3cnn([C@]4(CC#N)C[C@@H](C#N)C4)n3)c3cccnc3c2)n1 [Example 376, N-[6-(5-{2-[trans-3-cyano-1-(cyanomethyl)cyclobutyl]-2H-1,2,3-triazol-4-yl}quinolin-7-yl)pyridin-2-yl]acetamide] |
| – | – | – | – | 7380 | > 10 | 44 | 728 | CS(=O)(=O)N1CC(CC#N)(n2ccc(-c3nc(-c4cnc5cn[nH]c5c4)cc4ncccc34)n2)C1 [Example 166, [1-(methylsulfonyl)-3-{3-[7-(1H-pyrazolo[4,3-b]pyridin-6-yl)-1,6-naphthyridin-5-yl]-1H-pyrazol-1-yl}azetidin-3-yl]acetonitrile] |
| – | – | – | – | > 10000 | > 10 | 1180 | 9300 | N#CC[C@]1(n2ccc(-c3nc(-c4ccc(O)c(C(N)=O)n4)cc4ncccc34)n2)C[C@H](C#N)C1 [Example 227, 6-(5-{1-[cis-3-cyano-1-(cyanomethyl)cyclobutyl]-1H-pyrazol-3-yl}-1,6-naphthyridin-7-yl)-3-hydroxypyridine-2-carboxamide] |
| 432 | > 10 | 30 | 138 | – | – | – | – | Cc1nc(-c2cc(-c3cnn([C@]4(CC#N)C[C@H](C#N)C4)n3)c3cccnc3c2)ccc1O [Example 381, cis-3-(cyanomethyl)-3-{4-[7-(5-hydroxy-6-methylpyridin-2-yl)quinolin-5-yl]-2H-1,2,3-triazol-2-yl}cyclobutanecarbonitrile] |
| – | – | – | – | 1430 | > 10 | 56 | 399 | CS(=O)(=O)N1CC(CC#N)(n2ccc(-c3nc(-c4cnc5c(c4)NCCN5)cc4ncccc34)n2)C1 [Example 170, [1-(methylsulfonyl)-3-{3-[7-(1,2,3,4-tetrahydropyrido[2,3-b]pyrazin-7-yl)-1,6-naphthyridin-5-yl]-1H-pyrazol-1-yl}azetidin-3-yl]acetonitrile] |
| – | – | – | – | 1250 | > 10 | 16 | 530 | N#CC[C@]1(n2ncc(-c3cc(-c4cn[nH]c4N)cc4ncccc34)n2)C[C@H](C#N)C1 [Example 319, trans-3-{4-[7-(5-amino-1H-pyrazol-4-yl)quinolin-5-yl]-2H-1,2,3-triazol-2-yl}-3-(cyanomethyl)cyclobutanecarbonitrile] |
| – | – | – | – | > 10000 | > 10 | 1590 | 4330 | Cn1nc(-c2cc3ncccc3c(-c3ccn([C@]4(CC#N)C[C@@](C)(C#N)C4)n3)n2)cc1N [Example 68, trans-3-{3-[7-(5-amino-1-methyl-1H-pyrazol-3-yl)-1,6-naphthyridin-5-yl]-1H-pyrazol-1-yl}-3-(cyanomethyl)-1-methylcyclobutanecarbonitrile] |
| – | – | – | – | > 10000 | > 10 | 1510 | 5820 | N#CCC1(n2ccc(-c3nc(-c4cnc5c(c4)CCC5)cc4ncccc34)n2)CN(CC(F)(F)F)C1 [Example 232] |
| – | – | – | – | 6010 | > 10 | 175 | 2190 | N#CCC1(n2ccc(-c3nc(-c4ccnc(C(N)=O)c4)cc4ncccc34)n2)CN(CC(F)(F)F)C1 [Example 215, 4-(5-{1-[3-(cyanomethyl)-1-(2,2,2-trifluoroethyl)azetidin-3-yl]-1H-pyrazol-3-yl}-1,6-naphthyridin-7-yl)pyridine-2-carboxamide] |
| – | – | – | – | 1020 | > 10 | 44 | 464 | CS(=O)(=O)N1CC(CC#N)(n2ccc(-c3nc(-c4ccn[nH]4)cc4ncccc34)n2)C1 [Example 17, [1-(methylsulfonyl)-3-{3-[7-(1H-pyrazol-5-yl)-1,6-naphthyridin-5-yl]-1H-pyrazol-1-yl}azetidin-3-yl]acetonitrile] |
| 769 | > 10 | 33 | 256 | – | – | – | – | COc1nc(-c2cc(-c3cnn([C@]4(CC#N)C[C@@H](C#N)C4)n3)c3cccnc3c2)ccc1N [Example 384, trans-3-{4-[7-(5-amino-6-methontpyridin-2-yl)quinolin-5-yl]-2H-1,2,3-triazol-2-yl}-3-(cyanomethyl)cyclobutanecarbonitrile] |

— patent US11254668B2, “Pyrazolo[1,5-A]pyrazin-4-yl and related derivatives” (Pfizer Inc., priority 2017, dated 2022)
